From ChEMBL document CHEMBL1201861, “Genomics of Drug Sensitity in Cancer screening data, Wellcome Trust Sanger Institute”

Tests used:
Test in all cases: cells
[1] = test system: TE-12; format: functional, cell-based, Homo sapiens; conditions: Homo sapiens, TE-12;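 also: growth inhibition of TE-12 cells, read out by a cell viability assay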
Description: SANGER: Inhibition of human TE-12 cell growth in a cell viability assay.

[2] = test system: ES1; format: functional, cell-based, Homo sapiens; conditions: Homo sapiens, ES1;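 also: growth inhibition of ES1 cells, read out with a cell viability assay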
Description: SANGER: Inhibition of human ES1 cell growth in a cell viability assay.

[3] = test system: TE-10; format: functional, cell-based, Homo sapiens; conditions: Homo sapiens, TE-10;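 also: growth inhibition of TE-10 cells, measured by a cell viability assay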
Description: SANGER: Inhibition of human TE-10 cell growth in a cell viability assay.

[4] = test system: HuTu80; format: functional, cell-based, Homo sapiens, HUTU-80; conditions: Homo sapiens, HuTu80;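 also: growth inhibition of HuTu80 human cells, determined with a cell viability readout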
Description: SANGER: Inhibition of human HUTU-80 cell growth in a cell viability assay.

[5] = test system: NTERA-2-cl-D1; format: functional, cell-based, Homo sapiens; conditions: Homo sapiens, NTERA-2-cl-D1;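 also: inhibition of cell growth, measured with a cell viability assay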
Description: SANGER: Inhibition of human NTERA-S-cl-D1 cell growth in a cell viability assay.

[6] = test system: KNS-42; format: functional, cell-based, Homo sapiens; conditions: Homo sapiens, KNS-42;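 also: growth inhibition of KNS-42 cells, read out with a cell viability assay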
Description: SANGER: Inhibition of human KNS-42 cell growth in a cell viability assay.

[7] = test system: LS-123; format: functional, cell-based, Homo sapiens; conditions: Homo sapiens, LS-123
Description: SANGER: Inhibition of human LS-123 cell growth in a cell viability assay.

[8] = test system: K562; format: functional, cell-based, Homo sapiens; conditions: Homo sapiens, K562
Description: SANGER: Inhibition of human K-562 cell growth in a cell viability assay.

[9] = test system: CGTH-W-1; format: functional, cell-based, Homo sapiens; conditions: Homo sapiens, CGTH-W-1;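 also: growth inhibition of human CGTH-W-1 cells measured by cell viability assay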
Description: SANGER: Inhibition of human CGTH-W-1 cell growth in a cell viability assay.

[10] = test system: COLO-684; format: functional, cell-based, Homo sapiens; conditions: Homo sapiens, COLO-684
Description: SANGER: Inhibition of human COLO-684 cell growth in a cell viability assay.

[11] = test system: ONS-76; format: functional, cell-based, Homo sapiens; conditions: Homo sapiens, ONS-76;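 also: growth inhibition of human ONS-76 cells, read out with a cell viability assay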
Description: SANGER: Inhibition of human ONS-76 cell growth in a cell viability assay.

[12] = test system: COR-L88; format: functional, cell-based, Homo sapiens; conditions: Homo sapiens, COR-L88;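 also: growth inhibition of COR-L88 cells, read out with a cell viability assay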
Description: SANGER: Inhibition of human COR-L88 cell growth in a cell viability assay.

[13] = test system: COLO-668; format: functional, cell-based, Homo sapiens; conditions: Homo sapiens, COLO-668
Description: SANGER: Inhibition of human COLO-668 cell growth in a cell viability assay.

[14] = test system: GI-ME-N; format: functional, cell-based, Homo sapiens; conditions: Homo sapiens, GI-ME-N;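 also: growth inhibition of human GI-ME-N cells, read out with a cell viability assay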
Description: SANGER: Inhibition of human GI-ME-N cell growth in a cell viability assay.

[15] = test system: EM-2; format: functional, cell-based, Homo sapiens; conditions: Homo sapiens, EM-2;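 also: growth inhibition of EM-2 cells, read out with a cell viability assay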
Description: SANGER: Inhibition of human EM-2 cell growth in a cell viability assay.

[16] = test system: RH-1; format: functional, cell-based, Homo sapiens; conditions: Homo sapiens, RH-1;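 also: growth inhibition of human RH-1 cells, read out with a cell viability assay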
Description: SANGER: Inhibition of human RH-1 cell growth in a cell viability assay.

[17] = test system: J-RT3-T3-5; format: functional, cell-based, Homo sapiens; conditions: Homo sapiens, J-RT3-T3-5;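 also: cell viability assay measuring growth inhibition of human J-RT3-T3-5 cells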
Description: SANGER: Inhibition of human J-RT3-T3-5 cell growth in a cell viability assay.

[18] = test system: NCI-H1355; format: functional, cell-based, Homo sapiens; conditions: Homo sapiens, NCI-H1355;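 also: growth inhibition of human NCI-H1355 cells, read out by a cell viability assay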
Description: SANGER: Inhibition of human NCI-H1355 cell growth in a cell viability assay.

[19] = test system: KE-37; format: functional, cell-based, Homo sapiens; conditions: Homo sapiens, KE-37;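 also: growth inhibition of KE-37 cells, read out with a cell viability assay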
Description: SANGER: Inhibition of human KE-37 cell growth in a cell viability assay.

[20] = test system: NCI-H1395; format: functional, cell-based, Homo sapiens; conditions: Homo sapiens, NCI-H1395;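 also: cell viability assay read-out quantifying reduced proliferation of human NCI-H1395 cells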
Description: SANGER: Inhibition of human NCI-H1395 cell growth in a cell viability assay.

[21] = test system: C2BBe1; format: functional, cell-based, Homo sapiens; conditions: Homo sapiens, C2BBe1;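 also: growth inhibition of C2BBe1 cells, read out through a viability assay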
Description: SANGER: Inhibition of human C2BBe1 cell growth in a cell viability assay.

[22] = test system: AM-38; format: functional, cell-based, Homo sapiens; conditions: Homo sapiens, AM-38;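 also: growth inhibition of AM-38 cells of human origin, read out by a cell viability assay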
Description: SANGER: Inhibition of human AM-38 cell growth in a cell viability assay.

[23] = test system: RPMI-8226; format: functional, cell-based, Homo sapiens; conditions: Homo sapiens, RPMI-8226
Description: SANGER: Inhibition of human RPMI-8226 cell growth in a cell viability assay.

[24] = test system: KURAMOCHI; format: functional, cell-based, Homo sapiens; conditions: Homo sapiens, KURAMOCHI;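 also: growth inhibition of KURAMOCHI cells, read out with a cell viability assay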
Description: SANGER: Inhibition of human KURAMOCHI cell growth in a cell viability assay.

[25] = test system: EW-24; format: functional, cell-based, Homo sapiens; conditions: Homo sapiens, EW-24;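 also: human EW-24 cancer cell line, growth inhibition read out via a cell viability assay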
Description: SANGER: Inhibition of human EW-24 cell growth in a cell viability assay.

[26] = test system: K5; format: functional, cell-based, Homo sapiens; conditions: Homo sapiens, K5
Description: SANGER: Inhibition of human K5 cell growth in a cell viability assay.

[27] = test system: TE-9; format: functional, cell-based, Homo sapiens; conditions: Homo sapiens, TE-9;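 also: cell growth inhibition, measured with a cell viability readout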
Description: SANGER: Inhibition of human TE-9 cell growth in a cell viability assay.

[28] = test system: SK-MEL-1; format: functional, cell-based, Homo sapiens; conditions: Homo sapiens, SK-MEL-1;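 also: growth inhibition of human SK-MEL-1 cells, read out by a cell viability assay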
Description: SANGER: Inhibition of human SK-MEL-1 cell growth in a cell viability assay.

[29] = test system: COLO-829; format: functional, cell-based, Homo sapiens; conditions: Homo sapiens, COLO-829
Description: SANGER: Inhibition of human COLO-829 cell growth in a cell viability assay.

[30] = test system: SW684; format: functional, cell-based, Homo sapiens; conditions: Homo sapiens, SW684;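 also: growth inhibition of human SW684 cells, measured by a cell viability assay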
Description: SANGER: Inhibition of human SW684 cell growth in a cell viability assay.

[31] = test system: A101D; format: functional, cell-based, Homo sapiens; conditions: Homo sapiens, A101D;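 also: growth inhibition of the cell line, measured with a viability assay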
Description: SANGER: Inhibition of human A101D cell growth in a cell viability assay.

[32] = test system: NB5; format: functional, cell-based, Homo sapiens; conditions: Homo sapiens, NB5;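 also: growth inhibition of NB5 cells, read out as cell viability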
Description: SANGER: Inhibition of human NB5 cell growth in a cell viability assay.

[33] = test system: ML-2; format: functional, cell-based, Homo sapiens; conditions: Homo sapiens, ML-2;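 also: growth inhibition of ML-2 cells, measured with a cell viability readout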
Description: SANGER: Inhibition of human ML-2 cell growth in a cell viability assay.

[34] = test system: HH; format: functional, cell-based, Homo sapiens; conditions: Homo sapiens, HH
Description: SANGER: Inhibition of human HH cell growth in a cell viability assay.

[35] = test system: OCUB-M; format: functional, cell-based, Homo sapiens; conditions: Homo sapiens, OCUB-M;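 also: growth inhibition of the cancer cell line, read out through a cell viability assay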
Description: SANGER: Inhibition of human OCUB-M cell growth in a cell viability assay.

[36] = test system: DB; format: functional, cell-based, Homo sapiens; conditions: Homo sapiens, DB
Description: SANGER: Inhibition of human DB cell growth in a cell viability assay.

[37] = test system: NOMO-1; format: functional, cell-based, Homo sapiens; conditions: Homo sapiens, NOMO-1;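 also: growth inhibition of human NOMO-1 cells measured by a cell viability assay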
Description: SANGER: Inhibition of human NOMO-1 cell growth in a cell viability assay.

[38] = test system: JVM-2; format: functional, cell-based, Homo sapiens; conditions: Homo sapiens, JVM-2;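 also: growth inhibition of JVM-2 cells determined by a cell viability assay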
Description: SANGER: Inhibition of human JVM-2 cell growth in a cell viability assay.

[39] = test system: SK-UT-1; format: functional, cell-based, Homo sapiens; conditions: Homo sapiens, SK-UT-1;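 also: growth inhibition of SK-UT-1 cells, measured by a cell viability assay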
Description: SANGER: Inhibition of human SK-UT-1 cell growth in a cell viability assay.

[40] = test system: DOHH-2; format: functional, cell-based, Homo sapiens; conditions: Homo sapiens, DOHH-2;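 also: growth inhibition of human DOHH-2 cells, read out with a cell viability assay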
Description: SANGER: Inhibition of human DOHH-2 cell growth in a cell viability assay.

[41] = test system: BB49-HNC; format: functional, cell-based, Homo sapiens; conditions: Homo sapiens, BB49-HNC;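 also: cell viability assay read-out, reported as inhibition of BB49-HNC cell growth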
Description: SANGER: Inhibition of human BB49-HNC cell growth in a cell viability assay.

[42] = test system: SW 954; format: functional, cell-based, Homo sapiens; conditions: Homo sapiens, SW 954;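 also: growth inhibition of SW954 human cancer cells, read out as cell viability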
Description: SANGER: Inhibition of human SW954 cell growth in a cell viability assay.

[43] = test system: NCI-H23; format: functional, cell-based, Homo sapiens; conditions: Homo sapiens, NCI-H23;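 also: cell viability assay measuring growth inhibition of NCI-H23 cells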
Description: SANGER: Inhibition of human NCI-H23 cell growth in a cell viability assay.

[44] = test system: MV4-11; format: functional, cell-based, Homo sapiens, MV-4-11; conditions: Homo sapiens, MV4-11;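 also: cell viability readout measuring growth inhibition of human MV-4-11 cells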
Description: SANGER: Inhibition of human MV-4-11 cell growth in a cell viability assay.

[45] = test system: RPMI-8866; format: functional, cell-based, Homo sapiens; conditions: Homo sapiens, RPMI-8866
Description: SANGER: Inhibition of human RPMI-8866 cell growth in a cell viability assay.

[46] = test system: KALS-1; format: functional, cell-based, Homo sapiens; conditions: Homo sapiens, KALS-1;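 also: growth inhibition of KALS-1 cells, determined with a cell viability assay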
Description: SANGER: Inhibition of human KALS-1 cell growth in a cell viability assay.

[47] = test system: NCI-N87; format: functional, cell-based, Homo sapiens; conditions: Homo sapiens, NCI-N87;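 also: growth inhibition of human NCI-N87 cells, read out with a cell viability assay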
Description: SANGER: Inhibition of human NCI-N87 cell growth in a cell viability assay.

[48] = test system: D-247MG; format: functional, cell-based, Homo sapiens; conditions: Homo sapiens, D-247MG
Description: SANGER: Inhibition of human D-247MG cell growth in a cell viability assay.

[49] = test system: NB17; format: functional, cell-based, Homo sapiens; conditions: Homo sapiens, NB17;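 also: growth inhibition of NB17 cells, read out with a cell viability assay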
Description: SANGER: Inhibition of human NB17 cell growth in a cell viability assay.

Oc1ccc2ccccc2c1SSc1c(O)ccc2ccccc12
IC50 [1]: > 32000 nM
IC50 [2]: > 32000 nM
IC50 [3]: > 32000 nM
IC50 [4]: > 32000 nM
IC50 [5]: > 32000 nM
IC50 [6]: > 32000 nM
IC50 [7]: 8800 nM
IC50 [8]: > 32000 nM
IC50 [9]: > 32000 nM
IC50 [10]: 20300 nM
IC50 [11]: > 32000 nM
IC50 [12]: > 32000 nM
IC50 [13]: > 32000 nM
IC50 [14]: > 32000 nM
IC50 [15]: > 32000 nM
IC50 [16]: 27800 nM
IC50 [17]: > 32000 nM
IC50 [18]: > 32000 nM
IC50 [19]: 3500 nM
IC50 [20]: > 32000 nM
IC50 [21]: > 32000 nM
IC50 [22]: 21700 nM
IC50 [23]: > 32000 nM
IC50 [24]: > 32000 nM
IC50 [25]: > 32000 nM
IC50 [26]: > 32000 nM
IC50 [27]: > 32000 nM
IC50 [28]: > 32000 nM
IC50 [29]: > 32000 nM
IC50 [30]: > 32000 nM
IC50 [31]: > 32000 nM
IC50 [32]: > 32000 nM
IC50 [33]: 26400 nM
IC50 [34]: 10800 nM
IC50 [35]: > 32000 nM
IC50 [36]: 12700 nM
IC50 [37]: > 32000 nM
IC50 [38]: > 32000 nM
IC50 [39]: > 32000 nM
IC50 [40]: > 32000 nM
IC50 [41]: > 32000 nM
IC50 [42]: > 32000 nM
IC50 [43]: > 32000 nM
IC50 [44]: 9160 nM
IC50 [45]: > 32000 nM
IC50 [46]: > 32000 nM
IC50 [47]: > 32000 nM

CCC/C=C/C=C/C(=O)O[C@H]1/C(=C/C(=O)OC)C[C@H]2C[C@H]([C@@H](C)O)OC(=O)C[C@H](O)C[C@@H]3C[C@H](OC(C)=O)C(C)(C)[C@](O)(C[C@@H]4C/C(=C/C(=O)OC)C[C@H](/C=C/C(C)(C)[C@]1(O)O2)O4)O3 [BRYOSTATIN 1]
IC50 [1]: > 8 nM
IC50 [2]: > 8 nM
IC50 [3]: > 8 nM
IC50 [4]: > 8 nM
IC50 [5]: > 8 nM
IC50 [6]: > 8 nM
IC50 [7]: > 8 nM
IC50 [8]: > 8 nM
IC50 [9]: > 8 nM
IC50 [10]: > 8 nM
IC50 [11]: > 8 nM
IC50 [12]: > 8 nM
IC50 [13]: > 8 nM
IC50 [14]: > 8 nM
IC50 [15]: > 8 nM
IC50 [16]: > 8 nM
IC50 [17]: > 8 nM
IC50 [18]: > 8 nM
IC50 [19]: > 8 nM
IC50 [20]: > 8 nM
IC50 [21]: > 8 nM
IC50 [22]: > 8 nM
IC50 [23]: > 8 nM
IC50 [24]: > 8 nM
IC50 [25]: > 8 nM
IC50 [26]: > 8 nM
IC50 [27]: > 8 nM
IC50 [28]: > 8 nM
IC50 [29]: > 8 nM
IC50 [30]: > 8 nM
IC50 [31]: > 8 nM
IC50 [32]: > 8 nM
IC50 [33]: > 8 nM
IC50 [34]: > 8 nM
IC50 [35]: > 8 nM
IC50 [36]: > 8 nM
IC50 [37]: > 8 nM
IC50 [38]: > 8 nM
IC50 [39]: > 8 nM
IC50 [40]: > 8 nM
IC50 [41]: > 8 nM
IC50 [42]: > 8 nM
IC50 [43]: > 8 nM
IC50 [44]: > 8 nM
IC50 [45]: > 8 nM
IC50 [46]: > 8 nM
IC50 [47]: > 8 nM

OCCCNc1cc(-c2ccnc(Nc3cccc(Cl)c3)n2)ccn1
IC50 [1]: 48.5 nM
IC50 [2]: > 256 nM
IC50 [3]: 38.2 nM
IC50 [4]: 20.2 nM
IC50 [5]: 50.8 nM
IC50 [6]: 130 nM
IC50 [7]: 93 nM
IC50 [8]: > 256 nM
IC50 [9]: 79.8 nM
IC50 [10]: 94.9 nM
IC50 [48]: > 256 nM
IC50 [11]: 76.1 nM
IC50 [12]: > 256 nM
IC50 [13]: 236 nM
IC50 [14]: 105 nM
IC50 [15]: 176 nM
IC50 [16]: > 256 nM
IC50 [17]: 83.2 nM
IC50 [18]: 24.9 nM
IC50 [19]: 81.8 nM
IC50 [20]: > 256 nM
IC50 [21]: 154 nM
IC50 [22]: > 256 nM
IC50 [23]: 129 nM
IC50 [24]: 59.8 nM
IC50 [25]: > 256 nM
IC50 [26]: 18.8 nM
IC50 [27]: > 256 nM
IC50 [28]: > 256 nM
IC50 [29]: > 256 nM
IC50 [30]: > 256 nM
IC50 [31]: 20.5 nM
IC50 [49]: 88.7 nM
IC50 [32]: > 256 nM
IC50 [33]: > 256 nM
IC50 [34]: 70.6 nM
IC50 [35]: 52.5 nM
IC50 [36]: 138 nM
IC50 [37]: > 256 nM
IC50 [38]: > 256 nM
IC50 [39]: 157 nM
IC50 [40]: 40.8 nM
IC50 [41]: 96.3 nM
IC50 [42]: 170 nM
IC50 [43]: 245 nM
IC50 [44]: 43.1 nM
IC50 [45]: 73.8 nM
IC50 [46]: 35.3 nM
